From PMC6628362, “A New Strategy for Glioblastoma Treatment: In Vitro and In Vivo Preclinical Characterization of Si306, a Pyrazolo[3,4-d]Pyrimidine Dual Src/P-Glycoprotein Inhibitor” (Cancers, 2019)
Read-outs that look alike come from different tables or passages of the source.

Experiments:
U87-TxR = assay: MTT cell growth inhibition, MDR U87-TxR; assay type: cell-based, Human; conditions: 72 h, n = 3
Method: Human GBM cell lines U87 and LN-229 were purchased from the American Type Culture Collection, Rockville, MD, USA. U87-TxR cells were selected from U87 cells by continuous exposure to increasing concentrations of PTX [76]. LN-299, U87 and U87-TxR cells were grown in Minimum Essential Medium with 10% fetal bovine serum, 2 mM L-glutamine and 5000 U/mL penicillin, 5 mg/mL streptomycin solution. Cell lines were maintained at 37 °C in a humidified 5% CO2 atmosphere. They were sub-cultured at 72 h intervals using 0.25% trypsin/EDTA and 16,000 cells/cm^2 were seeded into a fresh medium.
MTT assay was used to assess the viability of U87 and U87-TxR cells (AppliChem GmbH, Taufkirchen, Germany). After reaching the confluence in 25 cm^2 tissue flasks, U87 and U87-TxR cells were trypsinized. Cells were seeded at the optimal density determined in initial experiments: 4000 cell/well into flat-bottomed 96-well tissue culture plates. Following the overnight incubation, cells were treated with Si306, pro-Si306 and dasatinib (1–25 µM) for 72 h. In addition, the combined effects of Si306 and pro-Si306 with PTX were evaluated in MDR GBM cells. To that end, two concentrations of Si306 and pro-Si306 (0.2 μM and 0.5 μM) were combined with increasing concentrations of PTX (0.1–2 μM) in simultaneous treatment. The sensitization of U87-TxR cells to PTX was studied after 72 h. Briefly, MTT was added to each well in a final concentration of 0.2 mg/mL for 4 h to induce the formation of the formazan in cells with intact/viable mitochondria. Then, produced formazan was dissolved in DMSO, and the absorbance was measured at 540 nm on a microplate reader (LKB 5060-006 Micro Plate Reader, Vienna, Austria). IC50 values were calculated by nonlinear regression analysis using GraphPad Prism 6.0 for Windows (GraphPad Software, La Jolla, CA, USA).

A172 = assay: Cell viability, A172 (Table S1); assay type: cell-based; conditions: Homo sapiens, A 172; A172, 72 h
Method: 1. Cell Growth Inhibition by Dasatinib, Si306 and Pro-Si306
GB cell lines BT138, T98G and A172 were treated with Si306 and pro-Si306 at concentrations ranging from 1 to 100 µM, or with DMSO as a control. Cell viability was evaluated 72 h after treatment for T98G and A172 cell lines and after 24 h for BT-138. In table S1 the IC50 values are reported.
Table S1. Sensitivity of glioblastoma multiforme (GBM) cells to Si306 and pro-Si306 expressed as IC50 […]
Figure S1. Rho 123 accumulation in U87-TxR cells treated with increasing concentrations of TQ (A), Dex-VER (B), Si306 (C) and pro-Si306 (D).
(1 picture or pasted object on this page, not shown here)

[1] = Plasma pharmacokinetics of Si306 in mice; assay type: in vivo, BALB/C mice; conditions: for AUC(0-t): read-out: AUC 0→24 h; for MRT inf: read-out: MRT 0→∞
Description: Naive male BALB/C mice (weight 20 ± 2 g) were ordered from Charles River (Milan, Italy). All animals were pathogen free and approximately 4–6 weeks old when they arrived. The adaption period to the environment was not less than seven days. All the procedures used on animals in this study were approved by Institutional Animal Use and Care Committee at Università Cattolica del S. Cuore, Rome and Università degli Studi di Siena and authorized by the Italian Ministry of Health, according to Legislative Decree 116/92, which implemented the European Directive 86/609/EEC on laboratory animal protection in Italy. Methods for all the conducted experiments were performed in accordance with regulations, standards and guidelines of the Animal Use and Care Committee of Università Cattolica del S. Cuore, Rome and Università degli Studi di Siena.
Si306 was dissolved in a mixture of Tween80 (10% v/v), benzyl alcohol (1% v/v) and a 10 mM solution of citric acid. The compound was administered intravenously as a single dose of 25 mg/kg in 200 μL of volume. At several time points (0.08, 0.25, 0.5, 1, 2, 4, 8, 24 h), after drug administration, mice were treated i.p. with heparin (5000 U/kg) and sacrificed under CO2. Five animals were used for each time point. Blood, brain, liver and kidneys were collected for the following quantitative analysis. Approximately 500–600 μL of blood was collected from each animal and transferred to a tube containing 10 μL of heparin and mixed briefly.
For the oral PK studies, mice received a single dose of 50 mg/kg of Si306 (dissolved in the same vehicle used for i.v. studies) in 400 μL of final volume by gavage. At nine time-points (0.25, 0.5, 1, 1.5, 2, 3, 4, 8, 24 h) after administration, mice were sacrificed under CO2. Blood and organs were collected and analyzed by LC-MS. The pharmacokinetic parameters, including area under concentration-time curve (AUC), maximum plasma concentration (Cmax), half-time (t1/2), apparent volume of distribution (V), plasma clearance (CL) and mean residence time (MRT), were calculated by non-compartmental analysis using PKSolver software (ver. 1.0, Nanjing, China).
Blood samples were centrifuged at 5000 rpm for 20 min to separate the plasma fraction, which was subsequently collected in a test tube. Acetonitrile (1 mL, with Si34 as internal standard at the concentration of 5 μg/mL) was added to each sample to denature proteins. Samples were centrifuged at 5000 rpm for 20 min, and the supernatant was recovered, dried under vacuum, solubilized again in methanol (100 μL), and analyzed. Brain and the other organs were homogenized using a T10 basic ULTRA-TURRAX® homogenizer (Bioclass, Pistoia, Italy); in order to extract the compound from the tissue, acetonitrile internal standard solution was added, and the homogenate was centrifuged at 5000 rpm for 20 min. The supernatant was recovered, filtered and analyzed by LC-MS. The quantification of each compound was performed by reference to the appropriate calibration curve. Representative LC-MS chromatograms for Si306 and for Si34 are reported in Figure S2 and Figure S3 respectively.

[2] = set-up: method as in PMID 28650650; conditions: cited from earlier work
[3] = male, BALB/C, mouse, iv, 25 mg/kg, mice
[4] = male, BALB/C, mouse, po, 50 mg/kg, mice

## ClC(Cn1ncc2c(Nc3cccc(Br)c3)nc(SCCN3CCOCC3)nc21)c1ccccc1 (centres unmarked) [Si306]
U87-TxR
  IC50: 4.78 ± 0.322 µM
U87-TxR; Homo sapiens, U87-TxR
  IC50: 4.8 µM
A172
  IC50: 1.69 ± 0.6 µM
[1]; i.v. 25 mg/kg vs p.o. 50 mg/kg
  Cmax for i.v. treatment, times higher than p.o.: 8.5 times
[1]; i.v., 25 mg/kg, mice
  CL z/F: 18.3 mL/min/kg
  V z/F: 8.17 L/kg
[1]; male, BALB/C, mouse, iv, 25 mg/kg, i.v., 25 mg/kg, mice, read-out: Tmax
  Tmax: 0.08 h
[1]; male, BALB/C, mouse, iv, 25 mg/kg, i.v., 25 mg/kg, mice, read-out: time of peak plasma concentration (converted)
  Tmax: 0.0833 h
[1]; [3]
  AUC(0-inf): 22800 ng·h/mL
  Cmax: 25400 ng/mL
  half-life: 5.15 h
  AUC(0-t): 22300 ng·h/mL
  MRT inf: 3.78 h
[1]; male, BALB/C, mouse, oral, 50 mg/kg, mice, p.o. 50 mg/kg vs i.v. 25 mg/kg, equation (1)
  bioavailability: 33.3%
[1]; [4]
  AUC(0-inf): 15200 ng·h/mL
  Cmax: 2970 ng/mL
  half-life: 5.96 h
  AUC(0-t): 14500 ng·h/mL
  MRT inf: 5.7 h
[1]; male, BALB/C, mouse, po, 50 mg/kg, mice, read-out: CL z/F (converted)
  CL/F: 54.8 mL/min/kg
[1]; male, BALB/C, mouse, po, 50 mg/kg, mice, read-out: V z/F
  Vd/F: 28.3 L/kg
[1]; male, BALB/C, mouse, po, 50 mg/kg, p.o., 50 mg/kg, mice, read-out: Tmax
  Tmax: 1.5 h
[2]
  solubility: very poorly water soluble
